Data from US20250288554A1, “PROPHYLACTIC OR THERAPEUTIC AGENT FOR NON-ALCOHOLIC STEATOHEPATITIS-DERIVED HEPATOCARCINOMA” (SEAKNIT Biological Technology Co., Ltd., priority 2022, published 2025).
Entries after “also recorded” stand apart in the source; their conditions may differ.

Experiments:
MC4R deficient mouse = test: Prophylactic effect of taxifolin on hepatocarcinoma in MC4R deficient mouse loaded with a high fat diet; assay type: in vivo; conditions: high fat diet containing 3% of taxifolin from 20 to 50 weeks old, vs reference group
Text: In Test Example 3, the taxifolin's action on the hepatocarcinoma by using the melanocortin-4 receptor deficient mouse (hereinafter, “MC4R deficient mouse”) loaded with a high fat diet. On the basis of the description in JP 2020-065454 A and JP 2017-006022 A, the MC4R deficient mouse provided by Joel K. Elmquist at the Medical Center in Texas University was used (Cell, 2005; 123(3): 493-505). The genetic background of the MC4R deficient mouse is the C57BL/6J mouse. These mice were kept under the controlled condition of temperature, humidity, and lighting time (12 hours cycle of dark and bright), unless otherwise specifically noted. After weaning (4 weeks after the birth), they were raised with a high fat diet (D12492 (524 kcal/100 g; 60% fat content in terms of energy rate); Research Diets, Inc.) and with freely available drinking water. All the MC4R mice loaded with the high fat diet had the NASH-like symptom by 20 weeks old; it has been known that they develop hepatocarcinoma thereafter (Am. J. Pathol., 2011; 179(5):2454-2463). The MC4R deficient 20 weeks old mice loaded with the high fat diet were divided into two groups; the reference group (n=13) that is continued to be fed with the same high fat diet until 50 weeks old, and the taxifolin-administered group (n=12) that is fed with the high fat diet containing 3% of taxifolin. The mice raised until 50 weeks old were euthanized by deep anesthesia using three mixed anesthetic agents, and then, the liver of each individual was removed. The number of the precancerous symptoms (Foci) in the removed liver, the number of the tumors having the precancerous symptom clustered, and the size of the tumor were measured. The statistical analysis was conducted using Student t-test. In FIG. 3, the number of the precancerous symptoms, the number of the tumors having the precancerous symptom clustered, and the size of the tumor are expressed by the average value of each group±standard error.

CD36 gene expression = test: Suppression effect of taxifolin on CD36 gene expression in the liver tissue of high-fat diet-induced model mice (real-time PCR); assay type: in vivo, mouse; conditions: C57BL/6J male mice, corrected by GAPDH
Text: In Test Example 1, the taxifolin's action on the CD36 gene expression in the liver tissue was studied using the high-fat diet-induced model mice.
The C57BL/6J male mice (7 weeks old: CLEA Japan, Inc.) were acclimated for one week with a normal solid diet (MF: Oriental Yeast Co., Ltd.) and with freely available drinking water.
The 8 weeks old mice after the acclimation were divided into 4 groups with 5 mice each, namely, the group of those raised with a normal solid diet for 12 weeks until 20 weeks old (hereinafter, “ND Group”), the group raised with a high fat diet (HFD-60 (506 kcal/100 g; 60% fat content in terms of energy rate): Oriental Yeast Co., Ltd.) (hereinafter, “HFD Group”), the group raised with the high fat diet containing 1% by weight of taxifolin (hereinafter, “HFD+1% TX-administered Group”), and the group raised with the high fat diet containing 3% by weight of taxifolin (hereinafter, “HFD+3% TX-administered Group”).
The mice raised until 20 weeks old were anesthetized with ether, and after they were euthanized by cervical dislocation, the liver of each individual was removed. […]
The mRNA expression amount of CD36 was corrected by the expression amount of glyceraldehyde-3-phosphate dehydrogenase (GAPDH), and this was comparatively quantified using the ΔΔCt method. […]

HepG2 cell = test: Taxifolin's suppressing action on fatty acid capturing in HepG2 cells (Oil Red O lipid droplet staining); assay type: cell-based, human; conditions: 24 hours; for capturing amount of palmitic acid by the HepG2 cells: 400 μm palmitic acid, vs Group B without taxifolin
Procedure: In Test example 2, the taxifolin's action on fatty acid capturing was studied by using the HepG2 cell, which is the cell strain derived from human hepatocarcinoma.
The HepG2 cells were inoculated with the density of 0.2×10^6 cells/well on the plate having 24 wells, and they were cultured using the 10% FBS-containing DMEM medium until the HepG2 cells covered 70 to 80% of the surface in the culture vessel. The HepG2 cells cultured in the culture medium were washed with the phosphate buffer (PBS), then cultured for 24 hours in the serum-free medium containing 400 μm of palmitic acid, taxifolin with various concentrations, and 1% BSA, with n=6 in each Group A to E, as described in Table 2.
The glucose concentration contained in the culture medium and in the serum-free medium were made 0%, 0.1% (low glucose), or 0.45% (high glucose).
The HepG2 cells that had been cultured in the serum-free medium for 24 hours were immobilized by 4% paraformaldehyde after washing with PBS. The resulting immobilized HepG2 cells were treated with 60% isopropanol, and then the lipid drops in the cells were stained using Oil Red O (Wako Pure Chemical Industries, Ltd.). Thereafter, it was washed with 60% isopropanol and then with PBS. The resulting washed HepG2 cells were treated with 100% isopropanol to elute the Oil Red O out. The resulting eluted Oil Red O was recovered in the plate with 96 wells, and then the absorbance (550 nm) was measured using the microplate reader (Multiscan SkyHigh; Thermo Fisher Scientific, Inc.).
The statistical analysis was conducted using Student t-test.
In FIG. 2, the capturing amount of the fatty acid is expressed by the average value of each group±standard error.
FIG. 2 indicates the capturing amount of the fatty acid in the HepG2 cells in each Group. The capturing amount in the HepG2 cells in each Group A to E is expressed by the percentage relative to Group A.

O=C1c2c(O)cc(O)cc2O[C@H](c2ccc(O)c(O)c2)[C@H]1O [taxifolin]
number of the precancerous symptoms (Foci) in the liver (MC4R deficient mouse): decreased drastically | number of the tumors having the precancerous symptom clustered (MC4R deficient mouse): decreased drastically | size of the tumor between 1 and 5 mm (MC4R deficient mouse): decreased significantly | mRNA expression amount of CD36 in the liver tissue (CD36 gene expression; high fat diet containing 1% by weight of taxifolin for 12 weeks (HFD+1% TX-administered Group) vs HFD Group): significantly decreased | mRNA expression amount of CD36 in the liver tissue (CD36 gene expression; high fat diet containing 3% by weight of taxifolin for 12 weeks (HFD+3% TX-administered Group) vs HFD Group): significantly decreased; also recorded: suppressed to the same level as the ND Group | concentration at which taxifolin suppressed the fatty acid capturing in the liver cells (HepG2 cell; HepG2 cells, palmitic acid, lowest concentration tested): 0.1 nM | capturing amount of palmitic acid by the HepG2 cells (HepG2 cell; high glucose (0.45%), taxifolin 0.1 nM to 1 μM): same tendency | capturing amount of palmitic acid by the HepG2 cells (HepG2 cell; low glucose (0.1%), taxifolin 0.1 nM or more): significantly decreased
